# Results published in patent publication US4950686A, “Anti-mycoplasma agent” (Shionogi & Co., Ltd., priority 1986, dated 1990).
# Like-named read-outs stand apart in the source and are kept apart here.
# What was measured:
# [1] = test system: Mycoplasma hyopneumoniae ST-11 (standard strain); assay: Anti-mycoplasma activity in vitro (MIC, broth dilution), strain ST-11; assay type: cell-based; settings: Mh ST-11
# Procedure: (§1) (1) Anti-mycoplasma activity test in vitro
# (§2) MIC values of each of Tropolones were measured on the following strains according to the following method.
# (b) Mycoplasma hyopneumoniae
# Strain: ST-11 (standard strain)
# Medium: 850 ml of Hanks' solution supplemented with 0.5% lactoalbumin, 50 ml of 25% yeast, 100 ml of equine serum and 4-6 ml of 0.5% phenol red (pH 7.4-7.6)
# (§3) Method: Broth dilution method
# Inoculum: Culture which is incubated for 3-4 days and diluted 10 times with the broth if color of the broth becomes yellow then. If it needs over 4 days until color of the broth becomes yellow, it is further subcultured. This is diluted 10 times with the broth to give inoculum.
# Assay is done in the same manner as in the above (a).
# [2] = test system: Mycoplasma gallisepticum T-7-T (wild strain, tylosin-resistant); assay: Anti-mycoplasma activity in vitro (MIC, broth dilution), strain T-7-T; assay type: cell-based; settings: Mg T-7-T, 37° C., 7 days
# Procedure: as §1, §2
# (§4) (a) Mycoplasma gallisepticum
# T-7-T (wild strain, tylosin-resistant)
# (§5) Medium: Chick PPLO broth supplemented with 20% equine serum (Eiken Kagaku Co., Ltd.)
# as §3
# (§6) Inoculum: Culture incubated at 37° C. for 24-48 hr which is diluted with broth to 10^6 CCU/ml immediately before the use.
# (§7) To 1.6 ml of the broth is added 0.2 ml of an agent which has been subjected to 2-fold dilution and then added 0.2 ml of inoculum, which is incubated at 37° C. for 7 days.
# [3] = test system: Mycoplasma gallisepticum S6 (standard strain); assay: Anti-mycoplasma activity in vitro (MIC, broth dilution), strain S6; assay type: cell-based; settings: Mg S6, 37° C., 7 days
# Procedure: as §1, §2, §4, §5, §3, §6, §7
# [4] = test system: Mycoplasma gallisepticum MR-1 (wild strain, tylosin-resistant); assay: Anti-mycoplasma activity in vitro (MIC, broth dilution), strain MR-1; assay type: cell-based; settings: Mg MR-1, 37° C., 7 days
# Procedure: as §1, §2, §4
# MR-1 (wild strain, tylosin-resistant)
# as §5, §3, §6, §7
# [5] = test system: Mycoplasma gallisepticum S6 (standard strain); assay: Mycoplasma gallisepticum air-sac infection method in chicken, strain S6; assay type: in vivo, Mycoplasma gallisepticum; SPF chicken (white leghorn); settings: 100 mg/kg × once oral, 10 mg/ml sol. b
# Procedure: (2) Test of Effectiveness Mycoplasma gallisepticum air-sac infection method
# Inoculation: To the right air-sac of 9 days old SPF chicken (a white leghorn) which has abstained from water and feed one day before is inoculated 0.20-0.25 ml/chicken of fresh mycoplasma culture incubated for 24-48 hr and diluted with broth (usually 100 times). The concentration in Table 2 is shown in a unit of mg/ml.
# Medium: Chick PPLO broth supplemented with 15% equine serum (Eiken Kagaku Co., Ltd.)
# Administration: A compound of this invention dissolved or suspended in the following solution is orally and forcibly administered once by a cannula immediately after the infection.
# Anatomization and Isolation of Microorganism: The chickens are anatomized 5 days after the infection, and the right and left air sacs are investigated whether they are attacked with a disease or not. The change caused by the disease is represented in four degrees; -: no change, +: slight, ++: medium and +++: serious. Microorganism is isolated from the right and left air-sacs and the trachea by using a sterilized applicator.
# Judgement: Judgement is done through an index of an air-sac disease and an index of a microorganism-isolation.
# Index of an air-sac-disease: First, indexes in the right and left air-sacs are separately calculated according to the following formula;
# {degree of disease (0-3)×chickens}/anatomized chickens
# and the index is calculated by the following formula;
# (index of right air-sac)×1+(index of left air-sac)×2
# Index of a microorganism isolation:
# P: chickens from the right air-sac of which microorganism is isolated,
# Q: chickens from the trachea of which microorganism is isolated,
# R: chickens from the left air-sac of which microorganism is isolated, and
# S: chickens investigated.
# [6] = Mesomycoplasma hyopneumoniae, read-out: MIC
# [7] = Mycoplasmoides gallisepticum, 168 h, read-out: MIC
Compound,"MIC [1, 6]","MIC [2, 7]","MIC [3, 7]","MIC [4, 7]",MIC [1],MIC [2],MIC [3],MIC [4],further results
"N#CSc1cccccc1=O [Compound 15, 2-Thiocyanatotropone]",0.39 µg/mL,6.25 µg/mL,6.25 µg/mL,12.5 µg/mL,–,–,–,–,–
"Cc1oc(=O)oc1COc1cccccc1=O [Compound 25, O-{(2-Oxo-5-methyl-1,3-dioxol-4-yl)methyl}tropolone]",0.2 µg/mL,0.39 µg/mL,0.39 µg/mL,0.39 µg/mL,–,–,–,–,"Change of air-sac, left: + (chickens) ([5]; inoculum 7.7 × 10^5): 0; Change of air-sac, left: ++ (chickens) ([5]; inoculum 7.7 × 10^5): 0; Change of air-sac, left: +++ (chickens) ([5]; inoculum 7.7 × 10^5): 0; Change of air-sac, left: - (chickens) ([5]; inoculum 7.7 × 10^5): 8; Change of air-sac, right: + (chickens) ([5]; inoculum 7.7 × 10^5): 1; Change of air-sac, right: ++ (chickens) ([5]; inoculum 7.7 × 10^5): 0; Change of air-sac, right: +++ (chickens) ([5]; inoculum 7.7 × 10^5): 0; Change of air-sac, right: - (chickens) ([5]; inoculum 7.7 × 10^5): 7; Isolation, L (left air-sac) ([5]; inoculum 7.7 × 10^5): 6; Isolation, R (right air-sac) ([5]; inoculum 7.7 × 10^5): 5; Isolation, T (trachea) ([5]; inoculum 7.7 × 10^5): 7; Mycoplasma Isolated Chickens ([5]; inoculum 7.7 × 10^5): 7; Index of Isolation ([5]; inoculum 7.7 × 10^5, range 0-6.0): 4.38; Index of Disease ([5]; inoculum 7.7 × 10^5, range 0-9.0): 0.13"
Tropolone zinc salt [Compound 7],–,–,–,–,0.78 µg/mL,3.13 µg/mL,1.56 µg/mL,3.13 µg/mL,–
Tropolone iron complex [Compound 1],–,–,–,–,0.39 µg/mL,0.78 µg/mL,0.78 µg/mL,0.56 µg/mL,–
"O=c1cccccc1[O-].O=c1cccccc1[O-].[Ni+2] [Compound 4, Tropolone nickel complex]",–,–,–,–,0.78 µg/mL,3.13 µg/mL,1.56 µg/mL,3.13 µg/mL,–
